According to PMC4055159, “Application of Molecular Modeling to Urokinase Inhibitors Development” (BioMed Research International, 2014):

Biological target: urokinase (uPA) (Homo sapiens, UniProt P00749)
Assay: urokinase inhibition testing in vitro, chromogenic substrate S-2444, optical density at 405 nm
Type: biochemical
Conditions: ordered compounds, Table 7; read-out: Experiment, uPA inhibition activity (IC50)
Protocol: After selection of the most promising candidates for new urokinase inhibitors, we tested their inhibition activities in vitro. The experiments were carried out on the system with the urokinase specimen, the tested ligand, and the special substrate—a synthetic Pyro-Glu-Gly-Arg-pNA peptide (S-2444). Urokinase decomposes the substrate with production of the chromogenic product. When the inhibitor binds to the urokinase active site, this production is slowed down. The higher the inhibition activity of the ligand, the slower the working of urokinase and the slower the accumulation of chromogenic product. Thus, the inhibitory activity can be measured by the rate of optical density change at the 405 nm wavelength. […] Error of the method for IC50 measurement in micromole range is about […].
Experimental tests were performed as indicated in paragraph 3.5 of “Methods.” Urokinase proteolytic activity in the presence of inhibitor (and also in absence of inhibitor, labeled “control” in Figure 4) was determined by releasing the paranitroanilide by means of measuring of absorption with a wave length of 405 nm each minute at 30°C. Figure 4 is a diagram of relationship between optical density and time. The angle of curve describes the reaction rate: the lower it is (compared with “control”, which corresponds to urokinase without inhibitors), the better inhibitor works.
With `Cc1[nH]c2ccc(Oc3ccccc3)cc2c1CCN` [TRY-0074] the IC50 was 260 µM.

Same assay, conditions: ordered compounds, Table S2; read-out: Experiment, uPA inhibition activity (IC50)
Work on `Nc1ncc(-c2ccc(F)cc2)[nH]1` [AIM-0027] yielded an IC50 of 500 µM.

Same assay, conditions: synthesized compounds, Table 8; read-out: Experiment, uPA inhibition activity (IC50)
`N=C(N)Sc1ccc(Br)cn1` [U007R] showed an IC50 of over 500 µM. Work on `COc1ccc2nc(N)[nH]c2c1` [U019R] yielded an IC50 of 500 µM. Work on `Cc1cccc(C)c1OCC1CN=C(N)O1` (centres unmarked) [U013T] yielded an IC50 of over 500 µM. Compound `N=C(N)Nc1nsc2ccccc12` [U024R, 1,2-benzisothiazol-3-yl-guanidine] has an IC50 of 33 µM. Compound `NC1=NCC(COc2ccccc2)O1` (centres unmarked) [U006R] has an IC50 of over 500 µM. For `N=C(N)Sc1ccccn1` [U001R], the IC50 was over 500 µM. Work on `Nc1cc2ccccc2cn1` [U003P] yielded an IC50 of over 500 µM. For `Nc1nc2cc(NS(=O)(=O)c3ccccc3)ccc2[nH]1` [U015R], the IC50 was over 500 µM. Work on `Nc1nc(-c2ccccc2)c[nH]1` [U005r] yielded an IC50 of 500 µM. In the case of `N=C(N)Nc1n[nH]c2ccccc12` [U021R], the IC50 is reported as 500 µM. Compound `Nc1nc(-c2ccc3ccccc3c2)cs1` [U009T] has an IC50 of over 500 µM. For `Nc1nc2cc(F)ccc2[nH]1` [U020R], the IC50 was 500 µM. With `N=C(N)Nc1nsc2ccc(Br)cc12` [U026R, (5-bromo-1,2-benzisothiazol-3-yl) guanidine] the IC50 was 4 to 20 µM. For `CC(=O)Nc1ccc2[nH]c(N)nc2c1` [U017R], the IC50 was 200 µM. Work on `N=C(N)Sc1ccccc1` [U002R] yielded an IC50 of over 500 µM. `Nc1ccc2[nH]c(N)nc2c1` [U014R] showed an IC50 of 200 µM. `Nc1nc2cc([N+](=O)[O-])ccc2[nH]1` [U014aR] gave an IC50 of over 500 µM. In the case of `NC1=NCC(COc2c(Cl)cccc2Cl)O1` (centres unmarked) [U012T], the IC50 is reported as over 500 µM.

Biological target: uPA
Assay: not given
Set-up: method as in PMID 8495419
Conditions: cited from earlier work
For `N=C(N)c1cc2c(I)cccc2s1` [B428], the Ki is listed as 0.53 µM.

Biological target: human uPA
Assay: not given
Set-up: method as in PMID 15582418, PMID 12113833, PMID 11755349, PMID 15149680, PMID 17447747
Conditions: read-out: K i against human uPA; cited from earlier work
For `CCOC(=O)N1CCN(C(=O)C(Cc2cccc(C(=N)N)c2)NS(=O)(=O)c2c(C(C)C)cc(C(C)C)cc2C(C)C)CC1` (centres unmarked) [WX-UK1], the Ki is given as 0.6 µM.

Tested on: not given
Assay: not given
Set-up: method as in PMID 19200050
Conditions: cited from earlier work
For `CCOC(=O)N1CCN(C(=O)C(Cc2cccc(C(=N)N)c2)NS(=O)(=O)c2c(C(C)C)cc(C(C)C)cc2C(C)C)CC1` (centres unmarked) [WX-UK1], the oral absorption is listed as “not absorbed orally”.
